PubChem BioAssay (NCI)
“And” between values parts separate entries of the source, which are not always exact repeats. Equal values may be shown once.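 Where inhibition never reached the appropriate level, the endpoint shown equals the highest concentration tested. Otherwise, values were interpolated linearly from a five-concentration, 48-hour dose response in 96-well plates. GI50 is the concentration that inhibits growth by half. The concentration for full growth arrest is given as TGI.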

Experiments:
Assay in all cases: DTP human tumour cell line panel, 48 h
SF-295 CNS = system: SF-295 CNS
CAKI-1 renal = system: CAKI-1 renal
U251 CNS = system: U251 CNS
T-47D breast = system: T-47D breast
OVCAR-4 ovarian = system: OVCAR-4 ovarian
CCRF-CEM leukemia = system: CCRF-CEM leukemia
RPMI-8226 leukemia = system: RPMI-8226 leukemia
HOP-62 NSCLC = system: HOP-62 NSCLC
COLO 205 colon = system: COLO 205 colon
OVCAR-3 ovarian = system: OVCAR-3 ovarian

SMILES	GI50 (SF-295 CNS)	TGI (SF-295 CNS)	GI50 (CAKI-1 renal)	TGI (CAKI-1 renal)	GI50 (U251 CNS)	TGI (U251 CNS)	GI50 (T-47D breast)	TGI (T-47D breast) [µM]	GI50 (OVCAR-4 ovarian)	TGI (OVCAR-4 ovarian)	GI50 (CCRF-CEM leukemia)	TGI (CCRF-CEM leukemia)	GI50 (RPMI-8226 leukemia)	TGI (RPMI-8226 leukemia) [µM]	GI50 (HOP-62 NSCLC)	TGI (HOP-62 NSCLC)	GI50 (COLO 205 colon)	TGI (COLO 205 colon)	GI50 (OVCAR-3 ovarian)	TGI (OVCAR-3 ovarian)
Cn1cc(-c2nc(-c3c[nH]c4ncccc34)cs2)c2ccccc21	26.9 µM	> 100 µM	25.5 µM	> 100 µM	24.8 µM	> 100 µM	0.414 µM	26.9	0.117 µM	> 100 µM	24.1 µM	> 100 µM	4.6 µM	> 100	19.7 µM	68.4 µM	24.1 µM	> 100 µM	4.46 µM	24.7 µM
O=Nc1c(-c2c(O)[nH]c3cc(Br)ccc23)[nH]c2ccccc12	1.34 µM	5.57 µM	0.109 µM	1.45 µM	1.87 µM	8.52 µM	1.98 µM	5.48	1.23 µM	5.37 µM	2.53 µM	> 100 µM	2.04 µM	> 22.5	–	–	1.35 µM	2.84 µM	0.648 µM	2.24 µM
COc1cc(/C=C/c2cc(/C=C/c3ccc(O)c(OC)c3)n(C(=O)Nc3ccccc3Cl)n2)ccc1O	0.636 µM	3.3 µM	0.222 µM	1.21 µM	0.384 µM	1.51 µM	0.821 µM	2.79	0.722 µM	9.09 µM	0.216 µM	0.844 µM	0.321 µM	1.55	0.471 µM	1.78 µM	1.49 µM	2.91 µM	0.45 µM	3.68 µM
O=c1cnnc(N/N=C/c2ccccc2O)[nH]1	3.11 µM	> 100 µM	3.01 µM	> 100 µM	2.11 µM	> 100 µM	0.0656 µM	> 100	0.264 µM	> 23.8 µM	0.396 µM	> 39.9 µM	1.23 µM	> 72.9	6.01 µM	53.7 µM	0.33 µM	> 100 µM	0.324 µM	> 100 µM
CC(C)(C)c1cc(NC(=O)Nc2ccc(-c3cn4c(n3)sc3cc(OCCN5CCOCC5)ccc34)cc2)no1	1.01 µM and 0.404 µM and 1.42 µM	18.1 µM and 2.55 µM and > 10 µM	10.9 µM and 2.6 µM and 6.93 µM	31.9 µM and 15.3 µM and > 10 µM	0.941 µM and 0.511 µM and 2.72 µM	12.9 µM and 5.25 µM and > 10 µM	0.0864 µM and 0.107 µM and 0.223 µM	–	4.61 µM and 1.38 µM and 3.38 µM	15.8 µM and 5.96 µM and > 10 µM	0.18 µM and 1.49 µM	18.6 µM and > 10 µM	0.363 µM and 0.16 µM and 0.34 µM	–	1.88 µM and 1.19 µM and 2.29 µM	6.57 µM and 10 µM and > 10 µM	7.75 µM and 1.21 µM and 1.76 µM	> 45.7 µM and 8.31 µM and 8.55 µM	6.61 µM and 1.54 µM and 6.76 µM	19.4 µM and 8.38 µM and > 10 µM
COc1ccc(C(=NN=C(N)N)c2ccc(OC)cc2)cc1	2.72 µM	11.2 µM	5.75 µM	21 µM	3.72 µM	14.1 µM	3.21 µM	15.1	3.46 µM	16.4 µM	5.18 µM	42.6 µM	5.46 µM	21.8	3.9 µM	15.5 µM	1.79 µM	3.97 µM	1.74 µM	4.76 µM
O=C(c1ccc(C(F)(F)F)c(Cl)c1)N(Cc1ccc(Cl)cc1)c1ccc(-c2cc(C(F)(F)F)[nH]n2)c(O)c1	1.08 µM	2.87 µM	1.01 µM	3.04 µM	0.882 µM	2.25 µM	0.948 µM	3.43	1.08 µM	4.87 µM	1.11 µM	5.33 µM	0.659 µM	2.23	1.02 µM	2.33 µM	0.865 µM	1.64 µM	0.845 µM	2.19 µM
O=C(NCCCl)Nc1cccnc1	–	94.5 µM	–	36.1 µM	–	> 100 µM	–	59.5	–	90.7 µM	–	> 100 µM	–	86.6	–	> 100 µM	–	51.3 µM	–	83.2 µM
COc1ccc2c3c1OC1C(OC)(OC)C=C[C@@]4(Br)[C@@H](C2)N(CC2CC2)CC[C@]314 (some centres not stated)	–	> 100 µM	–	> 100 µM	–	> 100 µM	–	> 100	–	> 100 µM	–	> 100 µM	–	> 100	–	> 100 µM	–	94.1 µM	–	> 100 µM
COC1=C(C)C(=O)c2c(c(CCCl)c3n2CCC3OC(C)=O)C1=O (configuration not stated)	0.153 µM	0.864 µM	0.35 µM	2.15 µM	0.273 µM	13.4 µM	8.22 µM	> 94.6	7.18 µM	38.6 µM	3.33 µM	> 95.8 µM	2.84 µM	27.3	0.122 µM	0.793 µM	0.136 µM	0.399 µM	1.48 µM	5.43 µM
CN(C)CC(=O)Nc1ccc2ncnc(Nc3ccc(Oc4cccc(C(F)(F)F)c4)c(Cl)c3)c2c1	2.02 µM	4.28 µM	1.71 µM	7.54 µM	1.79 µM	3.99 µM	1.31 µM	3.74	1.96 µM	5.83 µM	2.52 µM	10.4 µM	1.9 µM	5.51	2.09 µM	5.71 µM	–	–	1.61 µM	3.51 µM
CCOC(=O)C1=C(C)NC(=O)NC1CN1C(=O)c2ccccc2C1=O (configuration not stated)	> 100 µM	> 100 µM	> 100 µM	> 100 µM	> 100 µM	> 100 µM	> 100 µM	> 100	> 100 µM	> 100 µM	> 100 µM	> 100 µM	> 100 µM	> 100	> 100 µM	> 100 µM	> 100 µM	> 100 µM	> 100 µM	> 100 µM
N#CC1=C(N)NC(=S)NC12Nc1ccccc1S2 (configuration not stated)	11.5 µM	31.7 µM	15 µM	45 µM	21.4 µM	79.8 µM	29.9 µM	> 100	81.4 µM	> 100 µM	15.1 µM	53.3 µM	22.2 µM	> 100	–	–	24.8 µM	82.6 µM	14.6 µM	38.1 µM
C=C1C(=O)O[C@H]2[C@H](OC(C)=O)[C@@H](C)CCCC3(C)OC3CCC3(CO3)[C@H](O)C[C@@H]12 (some centres not stated)	11.4 µM	28.3 µM	12.1 µM	27.8 µM	10.4 µM	22.1 µM	13.7 µM	62.5	3.77 µM	53.8 µM	2.44 µM	7.27 µM	1.38 µM	4.08	21.4 µM	43 µM	3.8 µM	65.6 µM	3.62 µM	18.1 µM
CC1(C)N=C(N)N=C(N)N1c1ccc(OCCCNC(=O)Nc2cccc(S(=O)(=O)F)c2)c(Cl)c1	5.8 µM	> 100 µM	30.3 µM	> 100 µM	0.777 µM	> 100 µM	35.1 µM	> 100	> 100 µM	> 100 µM	3.62 µM	> 100 µM	41.4 µM	> 100	6.04 µM	> 100 µM	12.5 µM	> 100 µM	8.12 µM	> 100 µM
Cn1c2c(c3ccccc31)CCN(CCCCN1CCN(c3ccccc3)CC1)C2=O	–	> 100 µM	–	98.5 µM	–	> 84.2 µM	–	> 100	–	> 100 µM	–	> 79.9 µM	–	> 92.3	–	> 100 µM	–	26.2 µM	–	> 100 µM
CC1(C)N=C(N)N=C(N)N1c1ccc(Cl)cc1	2.9 µM	9.94 µM	> 100 µM	> 100 µM	1.19 µM	> 100 µM	> 100 µM	> 100	14.9 µM	> 100 µM	> 100 µM	> 100 µM	> 100 µM	> 100	3.54 µM	> 100 µM	21.4 µM	> 100 µM	11.3 µM	> 100 µM
CC(C)[C@@](O)(c1ccc2cc(OC(F)F)c(OC(F)F)cc2c1)c1cn[nH]n1	14.2 µM	29.7 µM	14.6 µM	38.2 µM	17.4 µM	34.7 µM	13.4 µM	53.1	17.1 µM	86 µM	19.2 µM	55.3 µM	17.3 µM	61.4	15.3 µM	30.7 µM	17.2 µM	35.1 µM	16.3 µM	37.1 µM
CC(C)(C)c1cc(/C=N/NC(=O)c2ccccc2NC(=O)c2cccs2)c(O)c(C(C)(C)C)c1	0.521 µM	17.9 µM	0.536 µM	> 100 µM	0.7 µM	7.64 µM	1.85 µM	29.4	0.193 µM	5.97 µM	0.336 µM	11.7 µM	1.05 µM	14	0.779 µM	21.6 µM	0.412 µM	22.2 µM	1.06 µM	10.5 µM
COc1ccc(C2CC(c3ccc(Nc4ccnc5cc(Cl)ccc45)cc3)=NN2C=O)cc1 (configuration not stated)	24.8 µM	> 100 µM	> 100 µM	> 100 µM	15 µM	> 100 µM	1.38 µM	15	13.4 µM	> 100 µM	2.71 µM	> 100 µM	2.71 µM	48.6	43.7 µM	> 100 µM	3.56 µM	> 100 µM	14.5 µM	55.4 µM
COc1cc(-c2nc3sc(C)cn3c2/C=C2\C(=O)Nc3ccccc32)c(Br)c(OC)c1OC	15.6 µM	40.7 µM	22.6 µM	57 µM	22.9 µM	54.8 µM	47.7 µM	> 100	44.1 µM	> 100 µM	43.2 µM	> 100 µM	–	–	26.5 µM	88.7 µM	25.7 µM	66.2 µM	22.9 µM	51 µM
CC(C)(C)CC(C)(C)c1ccc(O)c(Cc2ccc(Cl)cc2Cl)c1	1.62 µM	2.98 µM	1.31 µM	2.58 µM	1.56 µM	2.9 µM	1.35 µM	2.69	1.59 µM	2.93 µM	1.53 µM	3.19 µM	1.24 µM	3.66	1.42 µM	2.72 µM	1.77 µM	3.15 µM	1.74 µM	3.11 µM
COC(=O)[C@]12CC[C@@H](C)[C@H](C)[C@@H]1C1=CC[C@@H]3[C@@]4(C)C[C@@H](OC(=O)/C=C/c5ccccc5)[C@H](O)[C@@](C)(CO)[C@@H]4[C@H](O)C[C@@]3(C)[C@]1(C)CC2	2.27 µM	5.75 µM	3.27 µM	11.9 µM	1.86 µM	4.18 µM	2.34 µM	10.9	3.23 µM	13.4 µM	2.88 µM	10.4 µM	2.54 µM	7.86	1.91 µM	5.43 µM	1.91 µM	4.12 µM	1.98 µM	4.53 µM
C#Cc1cccc(Nc2ncnc3ccc(OCCCCNCCS(C)(=O)=O)cc23)c1	8.84 µM	> 25 µM	2.79 µM	> 25 µM	6.43 µM	> 23.3 µM	7.2 µM	> 25	9.55 µM	> 25 µM	7.65 µM	> 25 µM	4.59 µM	15.3	11.5 µM	> 25 µM	5.58 µM	12.3 µM	6.5 µM	> 23.6 µM
O=C(O)c1ccc(C(O)(c2ccccc2)c2ccccc2)cc1	–	> 100 µM	–	> 100 µM	–	> 100 µM	–	> 100	–	> 100 µM	–	> 100 µM	–	> 100	–	> 100 µM	–	> 100 µM	–	> 100 µM
C#CC(=O)Nc1cccc2c1cc(C)n2-c1nc2c(c(NCc3ccccc3)n1)CCCC2	0.207 µM	0.51 µM	0.478 µM	0.942 µM	0.178 µM	0.338 µM	0.697 µM	3.33	0.208 µM	0.491 µM	0.0255 µM	0.0605 µM	–	–	–	–	0.267 µM	0.803 µM	–	–
C/C(=N\OCC(O)CNCCSCc1ccccc1)c1ccccc1Cl (configuration not stated)	–	36.2 µM	–	34.6 µM	–	–	–	48.6	–	–	–	72.9 µM	–	43.4	–	38.8 µM	–	38.4 µM	–	34.6 µM
